# Data as given in patent US9322066B2, “Predictors for cancer treatment” (priority 2011, dated 2016).
# Tested on: relapsed or refractory, rituximab-naive or -sensitive follicular B-cell NHL
# Test: Time to next anti-lymphoma therapy, Vc-R vs rituximab study, by biomarker
# Type: in vivo, human
# Set-up: Median, Time to Next Anti-Lymphoma Therapy / Time to Next Anti-Lymphoma Therapy, Median: unit not given here
# Description: Non-Hodgkin lymphoma (NHL) encompasses several unique malignant lymphoid disease entities that vary in clinical behavior, morphologic appearance, immunologic, and molecular phenotype. […] A randomized, open-label, active-controlled, multicenter, multinational, prospective study to compare the efficacy and safety of the combination of bortezomib and rituximab (Vc-R) to single-agent rituximab in subjects who have relapsed or refractory, rituximab-naive or -sensitive follicular B-cell NHL was performed.
# Subjects were centrally randomized to Treatment Groups A (Vc-R) or B (rituximab) in a 1:1 ratio taking into account the following stratification factors: • Follicular Lymphoma International Prognostic Index (FLIPI) score (low [0 or 1 factor], intermediate [2 factors], high [≧3 factors]); • Prior rituximab therapy (yes, no); • Time since last dose of anti-lymphoma therapy (≦1 year, >1 year); • Region (United States/Canada, European Union, Rest of World).
# The following clinical endpoints were included in the analysis within each treatment group and an overall comparison was made with the biomarker-related endpoints: Progression-free survival, defined as the interval between the date of randomization and the date of progressive disease (PD) or death, whichever is first reported in the ITT population; overall survival; overall response rate (complete response [CR]+CR unconfirmed [CRu]+partial response [PR]); overall CR rate (CR+CRu); duration of response; time to next anti-lymphoma therapy; and treatment free interval.
# [1] = PSMB5/L206M: C/C, High Tumor Burden
# [2] = PSMB5/L206M: C/C, ≦65 years old
# [3] = PSMB5/R24C: C/C, >1 year since last anti-lymphoma treatment
# [4] = PSMB5/R24C: C/T, Ann Arbor Stage IV
# [5] = PSMB5/R24C: C/T, High Tumor Burden
# [6] = PSMB6/A234D: C/C, >1 year since last anti-lymphoma treatment
# [7] = PSMB6/A234D: C/C, Ann Arbor Stage IV
# [8] = PSMB6/A234D: C/C, European Union
# [9] = PSMB6/A234D: C/C, High Tumor Burden
# [10] = PSMB6/A234D: C/C, ≦65 years old
# [11] = PSMB6/P107A: C/C, >1 year since last anti-lymphoma treatment
# [12] = PSMB6/P107A: C/C, Ann Arbor Stage IV
# [13] = PSMB6/P107A: C/C, High Tumor Burden
# [14] = PSMB6/P107A: C/C, ≦65 years old
# [15] = PSMB8/G8R: G/G, >1 year since last anti-lymphoma treatment
# [16] = PSMB8/G8R: G/G, Ann Arbor Stage IV
# [17] = PSMB8/G8R: G/G, High Tumor Burden
# [18] = PSMB8/R141C: C/C, >1 year since last anti-lymphoma treatment
# [19] = PSMB8/R141C: C/C, Ann Arbor Stage IV
# [20] = PSMB8/R141C: C/C, European Union
# [21] = PSMB8/R141C: C/C, High Tumor Burden
# [22] = PSMB8/R141C: C/C, ≦65 years old
# [23] = PSMB8/V182M: G/G, >1 year since last anti-lymphoma treatment
# [24] = PSMB8/V182M: G/G, Ann Arbor Stage IV
# [25] = PSMB8/V182M: G/G, European Union
# [26] = PSMB8/V182M: G/G, High Tumor Burden
# [27] = PSMB8/V182M: G/G, ≦65 years old
# [28] = PSMB9/G9E: G/G, >1 year since last anti-lymphoma treatment
# [29] = PSMB9/G9E: G/G, Ann Arbor Stage IV
# [30] = PSMB9/G9E: G/G, High Tumor Burden
# [31] = PSMB9/V32I: C/C, 5 Prior Lines of Therapy
# [32] = PSMB9/V32I: C/C, >1 year since last anti-lymphoma treatment
# [33] = PSMB9/V32I: C/C, Ann Arbor Stage IV
# [34] = PSMB9/V32I: C/C, High Tumor Burden
substance,measurement,setting,value
rituximab,"Time to Next Anti-Lymphoma Therapy, Median","PSMB5/L206M: C/C, European Union",675
same,"Time to Next Anti-Lymphoma Therapy, Evt/N",[1],108/147
same,"Time to Next Anti-Lymphoma Therapy, Median",[1],396
same,"Time to Next Anti-Lymphoma Therapy, Evt/N","PSMB5/L206M: C/C, No Subgroup",173/276
same,"Time to Next Anti-Lymphoma Therapy, Median","PSMB5/L206M: C/C, No Subgroup",546
same,"Time to Next Anti-Lymphoma Therapy, Evt/N",[2],130/198
same,"Time to Next Anti-Lymphoma Therapy, Median",[2],489
same,"Time to Next Anti-Lymphoma Therapy, Evt/N",[3],81/137
same,"Time to Next Anti-Lymphoma Therapy, Median",[3],649
same,"Time to Next Anti-Lymphoma Therapy, Evt/N","PSMB5/R24C: C/C, No Subgroup",147/235
same,"Time to Next Anti-Lymphoma Therapy, Median","PSMB5/R24C: C/C, No Subgroup",546
same,"Time to Next Anti-Lymphoma Therapy, Evt/N","PSMB5/R24C: C/C, ≦65 years old",113/170
same,"Time to Next Anti-Lymphoma Therapy, Median","PSMB5/R24C: C/C, ≦65 years old",489
same,"Time to Next Anti-Lymphoma Therapy, Evt/N",[4],11/15
same,"Time to Next Anti-Lymphoma Therapy, Median",[4],421
same,"Time to Next Anti-Lymphoma Therapy, Evt/N",[5],19/21
same,"Time to Next Anti-Lymphoma Therapy, Median",[5],317
same,"Time to Next Anti-Lymphoma Therapy, Evt/N",[6],98/165
same,"Time to Next Anti-Lymphoma Therapy, Median",[6],688
same,"Time to Next Anti-Lymphoma Therapy, Evt/N",[7],86/127
same,"Time to Next Anti-Lymphoma Therapy, Median",[7],457
same,"Time to Next Anti-Lymphoma Therapy, Evt/N",[8],75/119
same,"Time to Next Anti-Lymphoma Therapy, Median",[8],675
same,"Time to Next Anti-Lymphoma Therapy, Evt/N",[9],108/147
same,"Time to Next Anti-Lymphoma Therapy, Median",[9],396
same,"Time to Next Anti-Lymphoma Therapy, Evt/N","PSMB6/A234D: C/C, No Subgroup",173/276
same,"Time to Next Anti-Lymphoma Therapy, Median","PSMB6/A234D: C/C, No Subgroup",546
same,"Time to Next Anti-Lymphoma Therapy, Evt/N",[10],130/198
same,"Time to Next Anti-Lymphoma Therapy, Median",[10],489
same,"Time to Next Anti-Lymphoma Therapy, Evt/N",[11],95/159
same,"Time to Next Anti-Lymphoma Therapy, Median",[11],702
same,"Time to Next Anti-Lymphoma Therapy, Evt/N",[12],84/124
same,"Time to Next Anti-Lymphoma Therapy, Median",[12],485
same,"Time to Next Anti-Lymphoma Therapy, Evt/N",[13],104/140
same,"Time to Next Anti-Lymphoma Therapy, Median",[13],380
same,"Time to Next Anti-Lymphoma Therapy, Evt/N","PSMB6/P107A: C/C, No Subgroup",167/265
same,"Time to Next Anti-Lymphoma Therapy, Median","PSMB6/P107A: C/C, No Subgroup",550
same,"Time to Next Anti-Lymphoma Therapy, Evt/N",[14],125/189
same,"Time to Next Anti-Lymphoma Therapy, Median",[14],504
same,"Time to Next Anti-Lymphoma Therapy, Evt/N",[15],91/155
same,"Time to Next Anti-Lymphoma Therapy, Median",[15],702
same,"Time to Next Anti-Lymphoma Therapy, Evt/N",[16],80/120
same,"Time to Next Anti-Lymphoma Therapy, Median",[16],457
same,"Time to Next Anti-Lymphoma Therapy, Evt/N","PSMB8/G8R: G/G, European Union",70/111
same,"Time to Next Anti-Lymphoma Therapy, Median","PSMB8/G8R: G/G, European Union",649
same,"Time to Next Anti-Lymphoma Therapy, Evt/N","PSMB8/G8R: G/G, Female",94/160
same,"Time to Next Anti-Lymphoma Therapy, Median","PSMB8/G8R: G/G, Female",649
same,"Time to Next Anti-Lymphoma Therapy, Evt/N",[17],104/140
same,"Time to Next Anti-Lymphoma Therapy, Median",[17],374
same,"Time to Next Anti-Lymphoma Therapy, Evt/N","PSMB8/G8R: G/G, No Subgroup",165/264
same,"Time to Next Anti-Lymphoma Therapy, Median","PSMB8/G8R: G/G, No Subgroup",537
same,"Time to Next Anti-Lymphoma Therapy, Evt/N","PSMB8/G8R: G/G, ≦65 years old",123/189
same,"Time to Next Anti-Lymphoma Therapy, Median","PSMB8/G8R: G/G, ≦65 years old",504
same,"Time to Next Anti-Lymphoma Therapy, Evt/N",[18],98/165
same,"Time to Next Anti-Lymphoma Therapy, Median",[18],688
same,"Time to Next Anti-Lymphoma Therapy, Evt/N",[19],86/127
same,"Time to Next Anti-Lymphoma Therapy, Median",[19],457
same,"Time to Next Anti-Lymphoma Therapy, Evt/N",[20],75/119
same,"Time to Next Anti-Lymphoma Therapy, Median",[20],675
same,"Time to Next Anti-Lymphoma Therapy, Evt/N",[21],108/147
same,"Time to Next Anti-Lymphoma Therapy, Median",[21],396
same,"Time to Next Anti-Lymphoma Therapy, Evt/N","PSMB8/R141C: C/C, No Subgroup",173/276
same,"Time to Next Anti-Lymphoma Therapy, Median","PSMB8/R141C: C/C, No Subgroup",546
same,"Time to Next Anti-Lymphoma Therapy, Evt/N",[22],130/198
same,"Time to Next Anti-Lymphoma Therapy, Median",[22],489
same,"Time to Next Anti-Lymphoma Therapy, Evt/N",[23],98/165
same,"Time to Next Anti-Lymphoma Therapy, Median",[23],688
same,"Time to Next Anti-Lymphoma Therapy, Evt/N",[24],86/127
same,"Time to Next Anti-Lymphoma Therapy, Median",[24],457
same,"Time to Next Anti-Lymphoma Therapy, Evt/N",[25],75/119
same,"Time to Next Anti-Lymphoma Therapy, Median",[25],675
same,"Time to Next Anti-Lymphoma Therapy, Evt/N",[26],108/147
same,"Time to Next Anti-Lymphoma Therapy, Median",[26],396
same,"Time to Next Anti-Lymphoma Therapy, Evt/N","PSMB8/V182M: G/G, No Subgroup",173/276
same,"Time to Next Anti-Lymphoma Therapy, Median","PSMB8/V182M: G/G, No Subgroup",546
same,"Time to Next Anti-Lymphoma Therapy, Evt/N",[27],130/198
same,"Time to Next Anti-Lymphoma Therapy, Median",[27],489
same,"Time to Next Anti-Lymphoma Therapy, Evt/N",[28],97/163
same,"Time to Next Anti-Lymphoma Therapy, Median",[28],688
same,"Time to Next Anti-Lymphoma Therapy, Evt/N",[29],86/126
same,"Time to Next Anti-Lymphoma Therapy, Median",[29],457
same,"Time to Next Anti-Lymphoma Therapy, Evt/N","PSMB9/G9E: G/G, European Union",75/119
same,"Time to Next Anti-Lymphoma Therapy, Median","PSMB9/G9E: G/G, European Union",675
same,"Time to Next Anti-Lymphoma Therapy, Evt/N",[30],107/145
same,"Time to Next Anti-Lymphoma Therapy, Median",[30],396
same,"Time to Next Anti-Lymphoma Therapy, Evt/N","PSMB9/G9E: G/G, No Subgroup",172/274
same,"Time to Next Anti-Lymphoma Therapy, Median","PSMB9/G9E: G/G, No Subgroup",546
same,"Time to Next Anti-Lymphoma Therapy, Evt/N","PSMB9/G9E: G/G, ≦65 years old",129/196
same,"Time to Next Anti-Lymphoma Therapy, Median","PSMB9/G9E: G/G, ≦65 years old",489
same,"Time to Next Anti-Lymphoma Therapy, Evt/N","PSMB9/R60H: A/G, Male",22/28
same,"Time to Next Anti-Lymphoma Therapy, Median","PSMB9/R60H: A/G, Male",380
same,"Time to Next Anti-Lymphoma Therapy, Evt/N",[31],7/8
same,"Time to Next Anti-Lymphoma Therapy, Median",[31],228
same,"Time to Next Anti-Lymphoma Therapy, Evt/N",[32],96/160
same,"Time to Next Anti-Lymphoma Therapy, Median",[32],649
same,"Time to Next Anti-Lymphoma Therapy, Evt/N",[33],84/123
same,"Time to Next Anti-Lymphoma Therapy, Median",[33],457
same,"Time to Next Anti-Lymphoma Therapy, Evt/N",[34],106/142
same,"Time to Next Anti-Lymphoma Therapy, Median",[34],396
same,"Time to Next Anti-Lymphoma Therapy, Evt/N","PSMB9/V32I: C/C, ≦65 years old",127/192
same,"Time to Next Anti-Lymphoma Therapy, Median","PSMB9/V32I: C/C, ≦65 years old",489
